Measured values from ChEMBL document CHEMBL1201862, “PubChem BioAssay data set” (2004).
Active and inactive are the calls of the source.

What was measured:
[1] = anti-trypanosomal activity in BESM host cells – imaging, CA-I/72 strain, bovine embryo skeletal muscle, dry powder, dose response (AID 651885); type: functional, cell-based
[2] = nonselective StAR promoter luciferase inhibitors – cell-based, luminescence, luciferase reporter, counter-screen for LRH-1 inverse agonist project, dose response (AID 651969); type: functional
[3] = biological target: Nuclear receptor subfamily 5 group A member 2 (Homo sapiens, UniProt O00482); type: functional, cell-based;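 also: HEK293T cells transfected with LRH-1 and a StAR promoter luciferase reporter; potency for inhibitors that lower LRH-1 driven reporter light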
Steroidogenic factor 1 = Steroidogenic factor 1 (Homo sapiens, UniProt Q13285); assay: Counterscreen for inverse agonists of the liver receptor homolog-1 (LRH-1; NR5A2): Luminescence-based cell-based high throughput dose response assay to identify inverse agonists of the Steroidogenic Factor 1 Nuclear Receptor (SF1; NR5A1).; type: functional
[4] = biological target: Adenosylmethionine-8-amino-7-oxononanoate aminotransferase (Mycobacterium tuberculosis, UniProt P9WQ81); assay: Mycobacterium tuberculosis BioA enzyme inhibitor Measured in Biochemical System Using Plate Reader - 2163-02_Inhibitor_Dose_CherryPick_Activity.; type: functional, Mycobacterium tuberculosis UT205
[5] = biological target: T1, Methionyl-tRNA synthetase, putative (Trypanosoma brucei brucei, UniProt Q38C91); type: functional, Trypanosoma brucei brucei strain 927/4 GUTat10.1
T1 sequence (Q38C91 whole entry): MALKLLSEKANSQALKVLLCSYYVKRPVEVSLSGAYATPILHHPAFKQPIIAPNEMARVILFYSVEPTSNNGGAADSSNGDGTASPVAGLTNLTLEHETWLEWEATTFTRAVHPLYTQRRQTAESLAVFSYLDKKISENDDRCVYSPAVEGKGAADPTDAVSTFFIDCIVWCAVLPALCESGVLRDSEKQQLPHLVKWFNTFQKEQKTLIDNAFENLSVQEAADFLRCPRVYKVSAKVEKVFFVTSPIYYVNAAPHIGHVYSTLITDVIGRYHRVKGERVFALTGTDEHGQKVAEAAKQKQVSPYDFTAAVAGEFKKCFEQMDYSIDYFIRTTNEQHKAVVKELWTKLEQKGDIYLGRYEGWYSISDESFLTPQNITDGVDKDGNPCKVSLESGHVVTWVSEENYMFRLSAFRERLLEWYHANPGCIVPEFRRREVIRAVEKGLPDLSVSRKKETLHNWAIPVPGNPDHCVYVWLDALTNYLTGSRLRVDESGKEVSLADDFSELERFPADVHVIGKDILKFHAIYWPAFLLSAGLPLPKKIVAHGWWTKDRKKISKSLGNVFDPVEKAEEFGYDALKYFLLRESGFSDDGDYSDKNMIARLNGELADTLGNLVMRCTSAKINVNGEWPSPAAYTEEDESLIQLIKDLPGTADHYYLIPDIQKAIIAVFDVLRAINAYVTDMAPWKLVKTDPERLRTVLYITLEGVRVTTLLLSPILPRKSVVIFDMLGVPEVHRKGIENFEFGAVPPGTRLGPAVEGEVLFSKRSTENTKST

[6] = Counterscreen for inhibitors of Trypanosoma brucei methionyl tRNA synthetase (MetRS): Luminescence-based cell-based high throughput dose response assay to identify compounds that are cytotoxic to Jurkat human T lymphocyte cells.; type: functional
[7] = biological target: T1, Methionyl-tRNA synthetase, putative; type: functional, Trypanosoma brucei brucei strain 927/4 GUTat10.1; remark: listed apart in the source
Vero = assay: viability loss in Vero cells – cell-based, plate reader, cherry-pick samples, cytotoxicity control, dose response (AID 687020); type: functional; conditions: Chlorocebus sabaeus
A549 = assay: viability loss in A549 cells – cell-based, plate reader, cherry-pick samples, cytotoxicity control, dose response (AID 687028); type: functional; conditions: Homo sapiens
[8] = blockers of bursicon-stimulated LGR2 cAMP reporter – cell-based, HEK293, CRE-luciferase reporter, cherry pick, set 2, dose response (AID 743343); type: functional;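 also: transfected cells were stimulated with diluted bursicon conditioned medium after compound addition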
[9] = blockade of melanocortin 4 receptor signaling – cell-based, plate reader, cherry pick, counter-screen for LGR2 antagonist project, dose response (AID 743444); type: functional;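 also: transfected HEK 293 cells stimulated with alpha-MSH peptide; potency of inhibitors of the alpha-MSH evoked signal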
[10] = Fluorescence-based cell-based high throughput dose response assay for inhibitors of the interaction of nucleotide-binding oligomerization domain containing 2 (NOD2) and the receptor-interacting serine-threonine kinase 2 (RIPK2).; type: functional; conditions: Homo sapiens
[11] = viability loss in HeLa cells – cytotoxicity control for MgcRacGAP inhibitor project, dose response (AID 624300); type: functional
[12] = biological target: Glucose-6-phosphate 1-dehydrogenase (Homo sapiens, UniProt P11413); assay: inhibition of Homo sapiens G6PD, dose series – biochemical, fluorescence, selectivity assay for P. falciparum G6PD inhibitor project, dose response (AID 504792); type: functional
[13] = biological target: SWI/SNF-related matrix-associated actin-dependent regulator of chromatin subfamily A member 2 (Homo sapiens, UniProt P51531); assay: Luminescence-based cell-based high throughput dose response assay to identify activators of the function of SWI/SNF related, matrix associated, actin dependent regulator of chromatin, subfamily a, member 2 (SMARCA2, BRM).; type: functional
Beta Lactamase = Beta Lactamase (Pseudomonas aeruginosa, UniProt Q932Y6); assay: BLA reporter interference, concentration series – BLA reporter cells, FRET fluorescence, artefact control for NOD2-RIPK2 interaction inhibitor project, dose response (AID 651552); type: functional, cell-based
Hexokinase = biological target: T2, Hexokinase (Trypanosoma brucei, UniProt Q38C41); assay: Confirmation assay for inhibitors of Trypanosoma brucei hexokinase 1-Analogue-first series. [Related pubchem assays (depositor defined):AID1430, AID1632, AID2516, AID2560, AID2579, AID2600, AID449725, AID492951]; type: functional
T2 sequence (Q38C41 whole entry): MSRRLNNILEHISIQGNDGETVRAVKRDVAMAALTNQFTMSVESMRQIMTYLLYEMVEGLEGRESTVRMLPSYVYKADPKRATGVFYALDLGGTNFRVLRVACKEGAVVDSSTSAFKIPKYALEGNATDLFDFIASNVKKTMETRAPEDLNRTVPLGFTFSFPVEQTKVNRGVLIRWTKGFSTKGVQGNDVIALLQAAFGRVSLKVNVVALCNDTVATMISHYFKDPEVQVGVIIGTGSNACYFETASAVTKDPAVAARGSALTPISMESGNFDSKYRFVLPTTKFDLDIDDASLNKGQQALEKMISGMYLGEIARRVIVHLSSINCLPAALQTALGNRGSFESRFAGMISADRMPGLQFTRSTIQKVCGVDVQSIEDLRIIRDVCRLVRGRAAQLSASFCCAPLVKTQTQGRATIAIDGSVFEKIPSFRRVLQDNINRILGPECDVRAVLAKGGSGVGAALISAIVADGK

[14] = biological target: T3, Rac GTPase-activating protein 1 (Homo sapiens, UniProt Q9H0H5); assay: blockers of MgcRacGAP-driven Rac1 GTP hydrolysis – biochemical, ADP Hunter fluorescence, primary and confirmatory, confirmation (AID 624330); type: functional
T3 sequence (Q9H0H5 whole entry): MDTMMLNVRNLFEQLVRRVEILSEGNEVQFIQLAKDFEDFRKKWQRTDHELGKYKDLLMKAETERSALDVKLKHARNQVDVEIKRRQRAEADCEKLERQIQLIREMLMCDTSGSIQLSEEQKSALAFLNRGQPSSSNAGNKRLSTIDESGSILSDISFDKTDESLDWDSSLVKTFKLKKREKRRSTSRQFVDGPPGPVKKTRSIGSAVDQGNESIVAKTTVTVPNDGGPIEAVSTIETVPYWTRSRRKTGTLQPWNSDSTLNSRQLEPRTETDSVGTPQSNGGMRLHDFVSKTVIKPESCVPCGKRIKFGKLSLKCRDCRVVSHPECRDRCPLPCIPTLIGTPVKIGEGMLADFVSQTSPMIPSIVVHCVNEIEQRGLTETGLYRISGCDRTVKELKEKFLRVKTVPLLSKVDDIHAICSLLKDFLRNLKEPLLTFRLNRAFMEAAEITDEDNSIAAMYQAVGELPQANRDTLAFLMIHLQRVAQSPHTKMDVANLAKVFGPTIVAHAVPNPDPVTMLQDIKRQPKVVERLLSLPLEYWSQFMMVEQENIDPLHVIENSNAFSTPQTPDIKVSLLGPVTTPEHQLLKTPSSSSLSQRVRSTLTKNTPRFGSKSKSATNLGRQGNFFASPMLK

[15] = Counterscreen for activators of the function of SWI/SNF related, matrix associated, actin dependent regulator of chromatin, subfamily a, member 2 (SMARCA2, BRM): Luminescence-based cell-based high throughput dose response assay to identify non-selective compounds using the VP16 reporter assay.; type: functional

Adenosylmethionine-8-amino-7-oxononanoate aminotransferase, sequence (P9WQ81 whole entry): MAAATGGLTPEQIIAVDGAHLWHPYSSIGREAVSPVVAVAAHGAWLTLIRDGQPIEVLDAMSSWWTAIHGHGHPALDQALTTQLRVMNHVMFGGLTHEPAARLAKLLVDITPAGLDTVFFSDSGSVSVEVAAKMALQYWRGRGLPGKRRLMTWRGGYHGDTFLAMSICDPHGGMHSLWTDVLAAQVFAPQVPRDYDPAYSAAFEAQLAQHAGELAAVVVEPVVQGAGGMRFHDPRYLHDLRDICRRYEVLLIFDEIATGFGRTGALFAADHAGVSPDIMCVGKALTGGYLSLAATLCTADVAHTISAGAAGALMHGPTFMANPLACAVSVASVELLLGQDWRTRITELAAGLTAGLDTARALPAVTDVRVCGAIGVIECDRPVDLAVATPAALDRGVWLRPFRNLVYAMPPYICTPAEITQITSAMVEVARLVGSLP
SWI/SNF-related matrix-associated actin-dependent regulator of chromatin subfamily A member 2, sequence (P51531 whole entry): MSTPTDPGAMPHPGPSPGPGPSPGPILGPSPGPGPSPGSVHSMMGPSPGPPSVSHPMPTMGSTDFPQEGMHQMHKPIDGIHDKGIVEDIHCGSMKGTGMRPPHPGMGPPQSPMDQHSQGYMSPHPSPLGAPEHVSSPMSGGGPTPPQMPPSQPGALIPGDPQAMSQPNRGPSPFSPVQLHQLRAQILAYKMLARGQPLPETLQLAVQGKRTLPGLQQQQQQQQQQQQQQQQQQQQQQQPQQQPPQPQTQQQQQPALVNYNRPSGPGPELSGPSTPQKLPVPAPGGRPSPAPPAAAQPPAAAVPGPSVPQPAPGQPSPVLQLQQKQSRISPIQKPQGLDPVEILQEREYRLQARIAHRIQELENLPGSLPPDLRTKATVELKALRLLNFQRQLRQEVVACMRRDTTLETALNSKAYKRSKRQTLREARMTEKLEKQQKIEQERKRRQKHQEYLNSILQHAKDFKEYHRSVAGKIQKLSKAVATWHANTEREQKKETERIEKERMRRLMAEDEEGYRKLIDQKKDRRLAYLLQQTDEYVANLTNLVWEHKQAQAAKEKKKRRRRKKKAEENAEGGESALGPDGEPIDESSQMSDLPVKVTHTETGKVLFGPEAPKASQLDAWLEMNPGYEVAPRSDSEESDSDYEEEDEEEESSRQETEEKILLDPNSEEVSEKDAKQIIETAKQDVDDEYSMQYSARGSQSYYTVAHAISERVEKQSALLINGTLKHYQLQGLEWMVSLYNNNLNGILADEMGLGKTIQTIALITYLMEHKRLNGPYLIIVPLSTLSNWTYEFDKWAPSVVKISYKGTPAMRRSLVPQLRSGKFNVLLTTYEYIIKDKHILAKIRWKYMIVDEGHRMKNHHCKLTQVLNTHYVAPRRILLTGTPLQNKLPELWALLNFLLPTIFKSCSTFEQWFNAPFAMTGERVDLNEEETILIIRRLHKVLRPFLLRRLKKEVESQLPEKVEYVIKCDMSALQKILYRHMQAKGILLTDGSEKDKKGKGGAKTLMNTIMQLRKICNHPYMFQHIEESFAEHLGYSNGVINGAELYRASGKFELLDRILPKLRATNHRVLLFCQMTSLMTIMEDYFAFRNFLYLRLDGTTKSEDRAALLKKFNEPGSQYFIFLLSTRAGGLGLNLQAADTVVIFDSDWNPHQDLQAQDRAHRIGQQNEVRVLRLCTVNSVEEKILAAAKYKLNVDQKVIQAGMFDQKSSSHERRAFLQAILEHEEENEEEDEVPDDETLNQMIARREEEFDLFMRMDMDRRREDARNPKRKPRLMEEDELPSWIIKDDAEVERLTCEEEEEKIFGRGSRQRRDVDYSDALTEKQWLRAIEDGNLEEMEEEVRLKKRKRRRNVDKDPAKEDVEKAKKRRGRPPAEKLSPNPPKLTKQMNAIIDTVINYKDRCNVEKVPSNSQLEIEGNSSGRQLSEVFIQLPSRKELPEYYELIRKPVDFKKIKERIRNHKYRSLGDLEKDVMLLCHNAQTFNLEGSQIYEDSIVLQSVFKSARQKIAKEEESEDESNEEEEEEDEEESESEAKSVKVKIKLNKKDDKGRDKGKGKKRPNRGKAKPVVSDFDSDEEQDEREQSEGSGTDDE
Steroidogenic factor 1, sequence (Q13285 whole entry): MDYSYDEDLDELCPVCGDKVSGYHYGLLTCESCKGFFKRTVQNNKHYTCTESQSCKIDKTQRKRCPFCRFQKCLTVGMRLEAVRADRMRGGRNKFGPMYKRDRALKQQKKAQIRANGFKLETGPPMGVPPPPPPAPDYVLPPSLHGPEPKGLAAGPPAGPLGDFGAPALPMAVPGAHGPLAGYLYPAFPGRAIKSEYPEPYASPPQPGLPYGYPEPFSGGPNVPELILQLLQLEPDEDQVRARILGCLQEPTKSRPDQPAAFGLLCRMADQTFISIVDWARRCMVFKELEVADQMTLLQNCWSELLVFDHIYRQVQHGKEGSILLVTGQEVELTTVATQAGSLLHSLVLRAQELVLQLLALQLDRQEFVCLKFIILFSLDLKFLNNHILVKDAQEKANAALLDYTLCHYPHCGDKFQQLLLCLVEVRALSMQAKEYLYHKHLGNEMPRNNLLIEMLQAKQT
Nuclear receptor subfamily 5 group A member 2, sequence (O00482 whole entry): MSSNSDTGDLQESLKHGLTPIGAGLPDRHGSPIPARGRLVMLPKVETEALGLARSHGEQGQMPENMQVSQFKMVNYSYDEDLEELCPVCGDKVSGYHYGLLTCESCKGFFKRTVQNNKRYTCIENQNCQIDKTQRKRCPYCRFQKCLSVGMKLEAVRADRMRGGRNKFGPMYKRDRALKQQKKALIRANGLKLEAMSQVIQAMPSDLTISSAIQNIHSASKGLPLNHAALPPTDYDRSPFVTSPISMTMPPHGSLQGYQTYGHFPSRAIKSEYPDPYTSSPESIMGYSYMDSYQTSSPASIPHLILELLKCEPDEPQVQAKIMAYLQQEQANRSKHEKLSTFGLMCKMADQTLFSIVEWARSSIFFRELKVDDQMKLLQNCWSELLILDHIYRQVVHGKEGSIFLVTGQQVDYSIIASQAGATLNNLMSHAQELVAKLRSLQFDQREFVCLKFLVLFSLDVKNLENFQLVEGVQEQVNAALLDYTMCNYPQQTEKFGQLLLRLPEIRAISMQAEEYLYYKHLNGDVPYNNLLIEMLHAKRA
Beta Lactamase, sequence (Q932Y6 whole entry): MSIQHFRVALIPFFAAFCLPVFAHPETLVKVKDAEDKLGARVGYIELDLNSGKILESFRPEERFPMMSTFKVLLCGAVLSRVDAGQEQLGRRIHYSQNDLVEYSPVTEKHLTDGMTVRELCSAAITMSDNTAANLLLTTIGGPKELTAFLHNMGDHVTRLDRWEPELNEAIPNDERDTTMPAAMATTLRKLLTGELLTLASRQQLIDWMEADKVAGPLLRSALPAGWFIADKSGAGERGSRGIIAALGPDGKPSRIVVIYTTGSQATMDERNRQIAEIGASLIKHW
Glucose-6-phosphate 1-dehydrogenase, sequence (P11413 whole entry): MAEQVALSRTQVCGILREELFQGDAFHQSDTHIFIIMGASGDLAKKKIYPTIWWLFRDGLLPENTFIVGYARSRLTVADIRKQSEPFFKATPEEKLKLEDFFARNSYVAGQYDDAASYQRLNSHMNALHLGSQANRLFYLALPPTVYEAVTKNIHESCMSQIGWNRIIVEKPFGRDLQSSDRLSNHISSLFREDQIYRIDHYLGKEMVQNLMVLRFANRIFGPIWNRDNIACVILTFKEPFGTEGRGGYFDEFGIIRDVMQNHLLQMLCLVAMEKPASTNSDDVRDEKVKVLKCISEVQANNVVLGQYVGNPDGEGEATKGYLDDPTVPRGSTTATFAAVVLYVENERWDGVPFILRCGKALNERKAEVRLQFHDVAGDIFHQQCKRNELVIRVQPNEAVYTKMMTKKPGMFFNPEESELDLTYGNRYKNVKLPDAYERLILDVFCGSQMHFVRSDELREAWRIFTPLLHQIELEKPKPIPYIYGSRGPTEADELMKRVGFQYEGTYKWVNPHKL

C[C@@H]1CN([C@@H](C)CO)C(=O)c2cccc(NC(=O)c3ccncc3)c2O[C@H]1CN(C)Cc1ccc(C(F)(F)F)cc1
IC50 [1]: 10 µM (inconclusive)

COc1ccc(OCCNC(=O)C2(C)CCN2Cc2ccc(SC)cc2)cc1 (centres undefined)
IC50 [2]: 35.9 µM (inactive) | IC50 [3]: 5.57 µM (active) | IC50 (Steroidogenic factor 1): 3.51 µM (active)

COc1ccc(C(=O)Nc2cccnc2)cc1OC
AC50 [4]: 8.29 µM (active)

C/C(CC(=O)Nc1cccc(Br)c1)=N\NC(=O)c1ccc(O)cc1O
IC50 [5]: 0.756 µM (active) | IC50 [6]: 83.3 µM (inactive) | IC50 [7]: 1.23 µM (active)

CCC(C)[C@H](NC(=O)[C@@H]1Cc2ccccc2CN1)C(=O)NCc1ccc(C)cc1 (some centres undefined)
AC50 (Vero): 29.5 µM (active) | AC50 (A549): 20.9 µM (active)

O=C(NCCc1ccccc1)c1ccc2c(c1)OCO2
AC50 [8]: 2.31 µM (active) | AC50 [9]: 2.88 µM (active)

COc1cc(-c2nnc(S)n2Cc2ccccc2)cc(OC)c1OC
AC50 [4]: 2.51 µM (active)

CN(C)S(=O)(=O)c1cccc(NC(=O)Cc2ccc(Cl)cc2)c1
IC50 [5]: 32.3 µM (inactive) | IC50 [6]: 83.3 µM (inactive) | IC50 [7]: 72.3 µM (inactive)

COc1ccc(-n2sc3ccccc3c2=O)cc1
IC50 [10]: 5.79 µM (active) | CC50 [11]: 79.7 µM (active) | IC50 [12]: 9.6 µM (active) | EC50 [13]: > 91.2 µM (inactive) | IC50 (Beta Lactamase): 27 µM (inactive) | IC50 (Hexokinase): 5.35 µM (active) | IC50 [14]: 34.5 µM (active) | EC50 [15]: > 91.2 µM (inactive)
